Literature values as cited in patent US20040132806A1, “Pravastatin pharmaceutical formulations and methods of their use” (priority 2002, published 2004).
Like-named read-outs stand apart in the source and are kept apart here.

What was measured:
[1] = intravenous, radiolabeled
[2] = not given; remark: listed apart in the source
[3] = such as the stomach
[4] = patients treated with pravastatin (Schatke et al, 1992)

SMILES: CC[C@H](C)C(=O)O[C@H]1C[C@H](O)C=C2C=C[C@H](C)[C@H](CC[C@@H](O)C[C@@H](O)CC(=O)O)[C@H]21 [pravastatin, Pravastatin]
- decrease of systemic bioavailability following a bedtime dose (PM) compared to morning (AM) dose (PM vs AM dose): 60%
- average oral absorption (based on urinary recovery of radiolabeled drug): 34%
- radiolabeled oral dose excreted in the feces (oral radiolabeled dose): ~70%
- radiolabeled oral dose excreted in urine (oral radiolabeled dose): Approximately 20%
- share of total body clearance by non-renal routes (biliary excretion and biotransformation) [1]: ~53%
- share of total body clearance via renal excretion [1]: approximately 47%
- hepatic extraction ratio ([2]; Lennernas & Fager, 1997): 0.45
- hepatic extraction ratio ([2]; Quion & Jones, 1994): 0.66
- first-pass extraction in the liver (extraction ratio) ([2]; in vivo): 0.66
- stability in acidic conditions [3]: poor stability
- myopathy [4]: Severe myopathy has been observed
